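Protocol summary: plate cells (96-well), add compound at 5 concentrations, incubate 48 h, interpolate endpoints linearly. GI50 = concentration required for 50% inhibition of growth. At the TGI there is no net growth.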
Legend:
Test in all cases: NCI anticancer screen, dose series, 48 h
HCC-2998 colon = system: HCC-2998 colon
HT29 colon = system: HT29 colon
M14 melanoma = system: M14 melanoma
MOLT-4 leukemia = system: MOLT-4 leukemia
NCI-H522 lung = system: NCI-H522 lung
PC-3 prostate = system: PC-3 prostate
RXF 393 renal = system: RXF 393 renal
SF-295 CNS = system: SF-295 CNS
SF-539 CNS = system: SF-539 CNS
U251 CNS = system: U251 CNS

| SMILES | GI50 (HCC-2998 colon) [µM] | GI50 (HT29 colon) [µM] | TGI (HT29 colon) [µM] | GI50 (M14 melanoma) [µM] | TGI (M14 melanoma) [µM] | GI50 (MOLT-4 leukemia) [µM] | TGI (MOLT-4 leukemia) [µM] | GI50 (NCI-H522 lung) [µM] | TGI (NCI-H522 lung) [µM] | GI50 (PC-3 prostate) [µM] | TGI (PC-3 prostate) [µM] | GI50 (RXF 393 renal) [µM] | TGI (RXF 393 renal) [µM] | GI50 (SF-295 CNS) [µM] | TGI (SF-295 CNS) [µM] | GI50 (SF-539 CNS) [µM] | TGI (SF-539 CNS) [µM] | GI50 (U251 CNS) [µM] | TGI (U251 CNS) [µM] | TGI (HCC-2998 colon) [µM] |
| --- | --- | --- | --- | --- | --- | --- | --- | --- | --- | --- | --- | --- | --- | --- | --- | --- | --- | --- | --- | --- |
| O=c1cc(-c2ccccc2)[nH]c2ccccc12 | 0.639 | 0.39 | > 34.8 | 0.941 | > 100 | 0.703 | > 100 | 0.439 | > 46.7 | 0.403 | > 100 | 0.996 | 9.68 | 0.458 | > 100 | 0.412 | 9.66 | 0.573 | > 100 | – |
| COC(=O)[C@@]1(C)CC[C@]2(C)CC[C@]3(C)C4=CC=C5C(=CC(=O)C(O)=C5C)[C@]4(C)[C@@H](O)C[C@@]3(C)[C@@H]2C1 | 13 | 10.8 | 23.1 | 9.74 | 22.2 | 3.18 | 20.1 | 8.39 | 20 | 8.7 | 19 | 11.3 | 22.9 | 13.2 | 28.4 | 15.7 | 28.8 | 8.71 | 18.7 | 25.2 |
| C[C@@H]1C[C@H]2CC[C@H](O2)[C@H](C)C(=O)O[C@@H](C)C[C@@H]2CC[C@@H](O2)[C@@H](C)C(=O)O[C@H](C)C[C@H]2CC[C@H](O2)[C@H](C)C(=O)O[C@@H](C)C[C@@H]2CC[C@@H](O2)[C@@H](C)C(=O)O1 | – | – | 15.7 | – | > 85 | – | 22 | – | 0.68 | – | 2.46 | – | > 100 | – | 0.659 | – | > 100 | – | > 100 | > 27.8 |
| COc1ccc(-c2nn3c(-c4cc(F)c(Cl)cc4Cl)nnc3s2)cc1 | 20.7 | 18.5 | 44.3 | 25.6 | 95.9 | 26.5 | 80.7 | 17 | 73.1 | 34.1 | > 100 | 28.7 | 97.2 | 16.2 | 65.3 | 20.8 | 44.4 | 24.6 | 74.5 | 48.7 |
| CN1CCC(n2cnc(-c3ccc(F)cc3)c2-c2ccnc(NCCO)n2)CC1 | > 25 | 10 | > 25 | > 25 | > 25 | > 25 | > 25 | > 17.7 | > 25 | > 25 | > 25 | > 25 | > 25 | > 19.8 | > 25 | > 25 | > 25 | 12.7 | > 25 | > 25 |
| COc1ccc(/C(C#N)=C/c2ccccc2OC)cc1 | 14.5 | 3.95 | 18.3 | 4.8 | 60.9 | 5.49 | > 100 | 4.85 | 32.3 | – | > 100 | 5.4 | 27.4 | 29.1 | > 100 | 20.5 | > 100 | 4.63 | 78.4 | > 100 |
| CN(C)CCNc1c2c(c(NCCN(C)C)c3[nH]ccc13)C(=O)c1ccccc1C2=O | 0.393 | 0.465 | – | 3.68 | 29.9 | 0.199 | – | 3.3 | > 100 | 0.609 | 11.1 | 1.5 | 3.63 | 0.693 | 3.25 | 1.01 | 3.8 | 0.507 | 15.9 | 3.28 |
| COc1ccc(/C=C2\CCCC3=C2N=C2SC(C)=NN2C3c2ccc(OC)c(OC)c2)cc1OC (stereo unspecified) | > 100 | 11.1 | 90.1 | 5.73 | > 100 | 13.8 | > 100 | 10.8 | 57.8 | 25.8 | > 100 | 3.88 | 18.2 | 14.8 | > 100 | 8.15 | > 100 | 26.2 | > 100 | > 100 |
| COc1ccc(-c2csc(N(C(=O)N3CCN(c4cc5c(cc4F)c(=O)c(C(=O)O)cn5C4CC4)CC3)c3ccccc3)n2)cc1 | 4.13 | 3.62 | 46.2 | 3.7 | > 100 | 3.78 | > 100 | 2.16 | 6.8 | 2.77 | > 100 | 0.789 | 14.8 | 2.49 | 8.61 | 2.93 | 48.7 | 0.973 | > 34.3 | > 100 |
| O=C(NCCCCCCNC(=O)n1cc(F)c(=O)[nH]c1=O)NCCCOCCOCCOCCOCCOCCOCCOCCOCCOCCOCCOCCOCCOCCOCCOCCOCCOCCOCCOCCOCCOCCCNC(=O)C(O)C(O)C(O)C(O)CO (stereo unspecified) | – | – | > 100 | – | > 100 | – | > 100 | – | > 100 | – | > 100 | – | > 100 | – | > 100 | – | 43.7 | – | > 100 | > 100 |
| CC#C[C@]1(O)CC[C@H]2[C@@H]3CCC4=CC(=O)CCC4=C3[C@@H](c3ccc4c(c3)OCO4)C[C@@]21C | 174 | 225 | > 1000 | 31 | 154 | 49.5 | > 1000 | 110 | 460 | 39.7 | 340 | 43.8 | 197 | 67.8 | 329 | 89.2 | 274 | 108 | 410 | 572 |
| O=C(NCCO)Nc1ccc(-c2nc(N3CCOCC3)c3cccn3n2)cc1 | 0.488 | 0.496 | > 100 | 0.189 | > 65.5 | 0.217 | > 49.2 | 0.0833 | > 100 | 0.103 | > 100 | 0.0686 | 1.39 | 0.117 | 2.13 | 0.315 | 5.72 | 1.01 | > 95.1 | > 100 |

From PubChem BioAssay (NCI)
